Assay results taken from PubChem BioAssay (NCI).
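Step 1: Grow cells in 96-well plates. Step 2: Expose to compound for 48 hours at 5 concentrations. Step 3: Interpolate endpoints linearly; if unreached, use highest concentration. The concentration for 50% growth inhibition is given as GI50. The concentration for full growth arrest is given as TGI.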

How the values were obtained:
Assay in all cases: inhibition of tumour cell growth, NCI panel, 48 h
NCI-H23 lung = system: NCI-H23 lung
NCI-H460 lung = system: NCI-H460 lung
NCI-H522 lung = system: NCI-H522 lung
NCI/ADR-RES ovarian = system: NCI/ADR-RES ovarian
OVCAR-3 ovarian = system: OVCAR-3 ovarian
OVCAR-4 ovarian = system: OVCAR-4 ovarian
OVCAR-5 ovarian = system: OVCAR-5 ovarian
OVCAR-8 ovarian = system: OVCAR-8 ovarian
PC-3 prostate = system: PC-3 prostate
RPMI-8226 leukemia = system: RPMI-8226 leukemia
RXF 393 renal = system: RXF 393 renal
SF-268 CNS = system: SF-268 CNS
SF-295 CNS = system: SF-295 CNS
SF-539 CNS = system: SF-539 CNS
SK-MEL-2 melanoma = system: SK-MEL-2 melanoma
SK-MEL-28 melanoma = system: SK-MEL-28 melanoma
SK-MEL-5 melanoma = system: SK-MEL-5 melanoma
SK-OV-3 ovarian = system: SK-OV-3 ovarian
SN12C renal = system: SN12C renal
SNB-19 CNS = system: SNB-19 CNS
SNB-75 CNS = system: SNB-75 CNS
SR leukemia = system: SR leukemia
SW-620 colon = system: SW-620 colon
T-47D breast = system: T-47D breast
TK-10 renal = system: TK-10 renal
U251 CNS = system: U251 CNS
UACC-257 melanoma = system: UACC-257 melanoma
UACC-62 melanoma = system: UACC-62 melanoma
UO-31 renal = system: UO-31 renal

Work on `C=C1C(=O)O[C@H]2[C@H]1CC/C(COC(=O)/C=C\C(=O)NCc1ccc(Cn3c(=O)sn(-c4ccc(Cl)cc4)c3=O)cc1)=C\CC[C@@]1(C)O[C@@H]21` yielded a GI50 (NCI-H23 lung) of 0.884 µM, a TGI (NCI-H23 lung) of 1.88 µM and a GI50 (NCI-H460 lung) of 0.811 µM. It also gave a TGI (NCI-H460 lung) of 1.74 µM, a GI50 (NCI-H522 lung) of 0.632 µM and a TGI (NCI-H522 lung) of 1.55 µM. The GI50 (NCI/ADR-RES ovarian) was 1.25 µM, the TGI (NCI/ADR-RES ovarian) was 5.06 µM and the GI50 (OVCAR-3 ovarian) was 0.223 µM. The TGI (OVCAR-3 ovarian) was 0.821 µM, the GI50 (OVCAR-4 ovarian) was 0.685 µM and the TGI (OVCAR-4 ovarian) was 1.37 µM. The GI50 (OVCAR-5 ovarian) was 0.834 µM, the TGI (OVCAR-5 ovarian) was 1.75 µM and the GI50 (OVCAR-8 ovarian) was 0.691 µM. It also gave a TGI (OVCAR-8 ovarian) of 2.3 µM, a GI50 (PC-3 prostate) of 0.599 µM and a TGI (PC-3 prostate) of 1.39 µM. The GI50 (RPMI-8226 leukemia) was 0.27 µM, the TGI (RPMI-8226 leukemia) was 2.05 µM and the GI50 (RXF 393 renal) was 0.476 µM. The TGI (RXF 393 renal) was 1.09 µM, the GI50 (SF-268 CNS) was 0.71 µM and the TGI (SF-268 CNS) was 1.43 µM. The GI50 (SF-295 CNS) was 3.11 µM, the TGI (SF-295 CNS) was 8.8 µM and the GI50 (SF-539 CNS) was 0.748 µM. The TGI (SF-539 CNS) was 1.43 µM, the GI50 (SK-MEL-2 melanoma) was 0.904 µM and the TGI (SK-MEL-2 melanoma) was 1.89 µM. The GI50 (SK-MEL-28 melanoma) was 0.816 µM, the TGI (SK-MEL-28 melanoma) was 1.55 µM and the GI50 (SK-MEL-5 melanoma) was 0.825 µM. It also gave a TGI (SK-MEL-5 melanoma) of 1.52 µM, a GI50 (SK-OV-3 ovarian) of 4.04 µM and a TGI (SK-OV-3 ovarian) of 10.7 µM. For the same compound, the GI50 (SN12C renal) was 0.666 µM, the TGI (SN12C renal) was 1.63 µM and the GI50 (SNB-19 CNS) was 0.831 µM. For the same compound, the TGI (SNB-19 CNS) was 1.67 µM, the GI50 (SNB-75 CNS) was 0.623 µM and the TGI (SNB-75 CNS) was 1.31 µM. It also gave a GI50 (SR leukemia) of 0.24 µM, a TGI (SR leukemia) of 12.3 µM and a GI50 (SW-620 colon) of 0.242 µM. The TGI (SW-620 colon) was 0.915 µM, the GI50 (T-47D breast) was 0.881 µM and the TGI (T-47D breast) was 2.15 µM. It also gave a GI50 (TK-10 renal) of 0.775 µM, a TGI (TK-10 renal) of 1.5 µM and a GI50 (U251 CNS) of 0.713 µM. The TGI (U251 CNS) was 1.6 µM, the GI50 (UACC-257 melanoma) was 0.8 µM and the TGI (UACC-257 melanoma) was 1.72 µM. For the same compound, the GI50 (UACC-62 melanoma) was 0.724 µM, the TGI (UACC-62 melanoma) was 1.47 µM and the GI50 (UO-31 renal) was 0.515 µM. For the same compound, the TGI (UO-31 renal) was 1.1 µM.
